# Test results as given in ChEMBL document CHEMBL1150540, “Aromatic P1 replacements for the highly potent HIV-1 protease inhibitor CRIXIVAN” (Bioorg Med Chem Lett, 1996).
# Target: Human immunodeficiency virus type 1 protease (Human immunodeficiency virus 1, UniProt Q72874)
# Assay: Inhibition of HIV-1 protease.
row,Compound,IC50 [nM]
1,CC(C)(C)NS(=O)(=O)c1ccccc1C[C@@H](O)C[C@@H](Cc1ccccc1)C(=O)N[C@H]1c2ccccc2C[C@H]1O,6
2,CC(C)(C)NC(=O)[C@@H]1CNCCN1C[C@@H](O)C[C@@H](Cc1ccccc1)C(=O)N[C@H]1c2ccccc2C[C@H]1O,38
3,COCOc1ccccc1C[C@@H](O)C[C@@H](Cc1ccccc1)C(=O)N[C@H]1c2ccccc2C[C@H]1O,276
4,COc1ccc(C[C@@H](O)C[C@@H](Cc2ccccc2)C(=O)N[C@H]2c3ccccc3C[C@H]2O)c(OC)c1,105
5,COc1cc(Oc2ccccc2)ccc1C[C@@H](O)C[C@@H](Cc1ccccc1)C(=O)N[C@H]1c2ccccc2C[C@H]1O,45
6,NS(=O)(=O)c1ccccc1C[C@@H](O)C[C@@H](Cc1ccccc1)C(=O)N[C@H]1c2ccccc2C[C@H]1O,290
7,O=C(N[C@H]1c2ccccc2C[C@H]1O)[C@H](Cc1ccccc1)C[C@H](O)Cc1ccccc1,1200
8,COc1ccccc1C[C@@H](O)C[C@@H](Cc1ccccc1)C(=O)N[C@H]1c2ccccc2C[C@H]1O,80
9,Cc1ccc(C[C@@H](O)C[C@@H](Cc2ccccc2)C(=O)N[C@H]2c3ccccc3C[C@H]2O)c(C(=O)NC(C)(C)C)c1,1.7
10,CC(C)COc1ccccc1C[C@@H](O)C[C@@H](Cc1ccccc1)C(=O)N[C@H]1c2ccccc2C[C@H]1O,97
11,CSc1ccccc1C[C@@H](O)C[C@@H](Cc1ccccc1)C(=O)N[C@H]1c2ccccc2C[C@H]1O,95
12,CC(C)(C)NC(=O)[C@@H]1CCCCN1C[C@@H](O)C[C@@H](Cc1ccccc1)C(=O)N[C@H]1c2ccccc2C[C@H]1O,80
13,CS(=O)(=O)c1ccccc1C[C@@H](O)C[C@@H](Cc1ccccc1)C(=O)N[C@H]1c2ccccc2C[C@H]1O,314
14,CC(C)(C)NC(=O)c1ccccc1C[C@@H](O)C[C@@H](Cc1ccccc1)C(=O)N[C@H]1c2ccccc2C[C@H]1O,4.7
15,O=C(N[C@H]1c2ccccc2C[C@H]1O)[C@H](Cc1ccccc1)C[C@H](O)Cc1ccccc1O,1600

# Target: Human immunodeficiency virus type 1 protease (Human immunodeficiency virus 1) (UniProt Q72874)
# Assay: In vitro inhibition of HIV-1 protease, activity expressed as CIC95 in whole cell assay.
row,Compound,IC95 [nM]
1,CC(C)(C)NC(=O)[C@@H]1CNCCN1C[C@@H](O)C[C@@H](Cc1ccccc1)C(=O)N[C@H]1c2ccccc2C[C@H]1O,3000
2,Cc1ccc(C[C@@H](O)C[C@@H](Cc2ccccc2)C(=O)N[C@H]2c3ccccc3C[C@H]2O)c(C(=O)NC(C)(C)C)c1,400
3,CC(C)(C)NC(=O)c1ccccc1C[C@@H](O)C[C@@H](Cc1ccccc1)C(=O)N[C@H]1c2ccccc2C[C@H]1O,800
